This is an account of results in PMC11091243, “PD-L1 targeted peptide demonstrates potent antitumor and immunomodulatory activity in cancer immunotherapy” (Frontiers in Immunology, 2024).

Residues, ends and D or L forms follow the SMILES beside them. No end group written: not given here. *: point of attachment. FITC = O=C1OC2(c3ccc(O)cc3Oc3cc(O)ccc32)c2ccc(NC(=S)*)cc21

One data set concerns the target T1, PD-1/PD-L1 binding (Homo sapiens, UniProt Q9NZQ7).
T1 construct: PD-1: 10377-H08H
Description: ELISA competition of peptides with PD-1 for binding to PD-L1. The following applies: n = 3, effect increases with peptide concentration. As for the experimental part:
After seven phages were grown and purified, the solution was diluted 10 times to produce eight gradients. To ascertain the phage’s affinity for PD-L1, an ELISA test was run. Briefly, 96-well plates were filled with 150 µL of PD-L1 ([…]) in assay diluent (BioLegend, San Diego, CA), and incubated at 4°C overnight. 5% BSA in water was used to block the wells for two hours at 4°C. Following washing, 100 µL of phage diluent was added to each well, and they were shaken for two hours at room temperature. The wells were then treated with HRP-conjugated anti-M13 antibody at dose of 1:5000. With 100 µL of HRP substrate, the reaction was observed, and the OD410 was determined. By deducting the OD value of each phage binding to BSA-coated wells from the OD value of that phage binding to PD-L1, the specific binding of each phage to PD-L1 was computed. Three duplicate runs of this assay were made. GraphPad Prism 6 software was used to compute each phage binding affinity by nonlinear regression and convert it to a Scatchard plot. ELISA was used to evaluate the candidate peptides capacity to inhibit PD1/PD-L1 binding. The subsequent stages were the same as those previously outlined. Following incubation, OD410 was determined by goat anti-rabbit monoclonal antibody that had been HRP-labeled and rabbit anti-human PD-L1 protein monoclonal antibody.
To assess the effect of PPL-C peptide interference, PD-L1 binding to PD-1 was investigated using ELISA and cell-based analysis. For the ELISA, 100 μL of mouse PD-L1 in PBS was coated in each well of a 96-well plate and incubated the plate at 4°C overnight. On the second day, 1% BSA in PBST was used to block the plate. Each well was then filled with 200 nmol/L biotinylated PD-1 and FITC-labeled PPL-C peptides (at final concentrations of 40, 20, 10, 5, or 2.5 μmol/L) before 1.5 hours incubating at room temperature. After two PBST washes, the relative FITC fluorescence intensity was measured using a Cytation 3 instrument. […] After two PBST washes, the Cytation 3 device was used to detect PE fluorescence intensity. […] Samples were analyzed by flow cytometry.
For orientation: An ELISA detects its analyte on a solid surface through an enzyme-linked reagent.

For data set [1], the system named is splenic lymphocyte subsets of CT26-bearing Balb/c mice. The data set is described as follows: Flow cytometry of spleen lymphocytes of CT26-bearing mice after treatment. Type of data set: in vivo. As to conditions: CT26-bearing Balb/c mice, 14 days after treatment; Figure 5D. As for the experimental part: (§1) The mice’s tumor volumes were measured by calipers after they were randomly allocated to various treatment groups. Every day tumor volumes were measured along axes (a and b) that are orthogonal to one another, and they were estimated by the equation tumor volume = π/6 × a × b^2. After the tumor was established (approximately 7 days), each group was subcutaneously injected with PPL-C (6 or 11 mg/kg), control peptide (11 mg/kg), endotoxin-free PD-L1 antibody (200 μg), or control antibody, following specific treatment procedures outlined in the flow chart. The Kaplan-Meier technique was used to determine survival differences for each group, and the log-rank test using the survival R package version 2.38-3 was applied to get the overall p-value.
To differentiate lymphocytes, spleen monocytes were separated via isodensity centrifugation. For flow cytometry evaluation, cell-surface and intracellular staining was achieved through reagents from BD Biosciences or Biolegend, following previously described protocols. Re-suspending the 1× 10^6 cells in 100 μL of PBS before incubating them with the appropriate antibodies. Data were collected using a BD Biosciences FACSCalibur flow cytometer, Germany, and analyzed using FlowJo 7.6 software, USA. Based on scatter signals and 7-Amino-actinomycin D fluorescence, dead cells, and cell debris were removed from the study.
In general terms: A flow cytometer gives signals particle by particle.

The test system of a further data set is CT26 tumor. It is filed as in vivo, mouse. The following applies: reduced dose, s.c. around the tumor every day or every other day, n = 6, P<0.001. As for the experimental part: The investigators conducting the animal studies were not blinded. […] The mice were then randomized into different treatment groups.
as §1

T1 sequence (Q9NZQ7 19-239 limits assumed): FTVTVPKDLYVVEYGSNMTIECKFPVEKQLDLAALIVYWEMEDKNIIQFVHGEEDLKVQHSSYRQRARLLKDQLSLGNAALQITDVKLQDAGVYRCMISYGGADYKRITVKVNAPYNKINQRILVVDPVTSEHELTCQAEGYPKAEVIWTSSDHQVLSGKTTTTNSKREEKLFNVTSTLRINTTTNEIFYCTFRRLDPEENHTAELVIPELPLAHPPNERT

Consider SHESWLPAYVLGSGGGSK-NH2 [PL-20], for which, at PD-1/PD-L1 binding, the “Competition with PD-1 to bind PD-L1 (blocking of PD-L1/PD-1)” value is listed as “blocked moderately”.

Take “SMQYADHPVNTGGGGSK-NH2 [Control peptide, scrambled control peptide, reference compound]”: the “Percentage of NK cells in spleen (CD49b/Nkp46, upper right quadrant)” value in data set [1] stood at 10.80%. Moreover, the “Survival time of CT26 tumor-bearing mice” value in the data set on CT26 tumor is 53 days.

As for `CC[C@H](C)[C@H](NC(=O)[C@H](Cc1c[nH]c2ccccc12)NC(=O)[C@H](CO)NC(=O)[C@@H](NC(=O)[C@H](Cc1c[nH]cn1)NC(=O)[C@@H](N)CO)[C@@H](C)O)C(=O)N[C@@H](CC(C)C)C(=O)N[C@@H](Cc1ccc(O)cc1)C(=O)NCC(=O)N[C@@H](CCC(=O)O)C(=O)N[C@H](C(=O)NCC(=O)N[C@@H](Cc1c[nH]c2ccccc12)C(=O)NCC(=O)NCC(=O)NCC(=O)N[C@@H](CO)C(=O)N[C@@H](CCCCNC(=S)Nc1ccc2c(c1)C(=O)OC21c2ccc(O)cc2Oc2cc(O)ccc21)C(N)=O)[C@@H](C)O` [PL-8] (H-SHTSWILYGETGWGGGSK(FITC)-NH2; N-terminus assumed), the “Competition with PD-1 to bind PD-L1 (blocking of PD-L1/PD-1)” value on PD-1/PD-L1 binding is “blocked moderately”.
